The subject of the series is Hemophilia A mice. The experiment in a line: Immunogenicity of simple complexes, subcutaneous: total antibody titers (ELISA) and inhibitory titers (Bethesda Units). Particulars: mouse, in vivo, sc. On the procedure:
To illustrate this example, simple complexes were prepared with phosphoserine, phosphocholine or phaphatidic acid. Immunogenicity was tested by subcutaneous administration of the complexes in Hemophilia A mice.
On the technique in general: In an ELISA, binding on a coated surface is turned into a signal by an enzyme label.

With phosphatidic acid, the “effect on immunogenicity (total antibody titers and inhibitory titers) versus rFVIII” value is “not”.

The record behind these values is patent publication US7351688B2, “Compositions and methods for less immunogenic protein formulations” (The Research Foundation of State University of New York, priority 2003, dated 2008).
